Values joined by “and” are separate entries in the source; they are usually repeats but may differ in a detail not shown here. Equal values may be shown once.
Test system: TGR in newly transformed schistosomula (NTS)
Assay: TGR inhibition in NTS with TRFS-Green fluorescent probe;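 further: untreated reference is NTS exposed to TRFS-Green probe alone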
Assay type: cell-based, S. mansoni
Conditions: NTS
Protocol: TGR inhibition in NTS was assessed using a fluorescent probe TRFS-Green (Medchemexpress)[43]. NTS prepared as previously described and cultured in M199 supplemented with 5.5 mM D-glucose, penicillin-streptomycin and 5% heat inactivated fetal bovine serum were incubated at 37 °C in a clear bottom flat well plate in a 5% CO2 incubator overnight. […] NTS were further treated with TRFS-Green (10 µM) for additional 4 h and rinsed with M199 medium to remove residual TRFS-Green. Fluorescence images were obtained using Keyence BZ-X800. The quantification of fluorescence intensity upon the uptake of TRFS-Green by NTS was performed by a fluorescent microplate imager (BioTek Cytation3) (excitation, 438 nm; emission, 538 nm) hourly for 5 h and after 24 h.

Row | SMILES | TGR inhibition visualized by TRFS-Green, Average (1hr, 5 µM) | TGR inhibition visualized by TRFS-Green, single replicate (1hr, 5 µM) | TGR inhibition visualized by TRFS-Green, Average (1hr, 15 µM) | TGR inhibition visualized by TRFS-Green, single replicate (1hr, 15 µM) | TGR inhibition visualized by TRFS-Green, Average (1hr, 30 µM) | TGR inhibition visualized by TRFS-Green, single replicate (1hr, 30 µM) | TGR inhibition visualized by TRFS-Green, Average (2hr, 5 µM) | TGR inhibition visualized by TRFS-Green, single replicate (2hr, 5 µM) | TGR inhibition visualized by TRFS-Green, Average (2hr, 15 µM) | TGR inhibition visualized by TRFS-Green, single replicate (2hr, 15 µM) | TGR inhibition visualized by TRFS-Green, Average (2hr, 30 µM) | TGR inhibition visualized by TRFS-Green, single replicate (2hr, 30 µM) | TGR inhibition visualized by TRFS-Green, Average (3hr, 5 µM) | TGR inhibition visualized by TRFS-Green, single replicate (3hr, 5 µM) | TGR inhibition visualized by TRFS-Green, Average (3hr, 15 µM) | TGR inhibition visualized by TRFS-Green, single replicate (3hr, 15 µM) | TGR inhibition visualized by TRFS-Green, Average (3hr, 30 µM) | TGR inhibition visualized by TRFS-Green, single replicate (3hr, 30 µM) | TGR inhibition visualized by TRFS-Green, Average (4hr, 5 µM) | TGR inhibition visualized by TRFS-Green, single replicate (4hr, 5 µM) | other results
1 | Cc1oc(C2CCCCC2)nc1C(=O)N[C@@H]1C[C@@H]2C[C@H]([C@H]1C)C2(C)C [C7 (8VP108)] | 12657 | 12650 and 12664 | 10865 | 11062 and 10668 | 10431.5 | 10627 and 10236 | 18963 | 19690 and 18236 | 17493 | 17993 and 16993 | 16380.5 | 16170 and 16591 | 32388.5 | 32805 and 31972 | 28933.5 | 28944 and 28923 | 28582 | 28060 and 29104 | 35273.5 | 35655 and 34892 | TGR inhibition visualized by TRFS-Green, Average (4hr, 15 µM): 29029; TGR inhibition visualized by TRFS-Green, single replicate (4hr, 15 µM): 29202 and 28856; TGR inhibition visualized by TRFS-Green, Average (4hr, 30 µM): 28478.5; TGR inhibition visualized by TRFS-Green, single replicate (4hr, 30 µM): 28833 and 28124; TGR inhibition visualized by TRFS-Green, Average (5hr, 5 µM): 39296; TGR inhibition visualized by TRFS-Green, single replicate (5hr, 5 µM): 39469 and 39123; TGR inhibition visualized by TRFS-Green, Average (5hr, 15 µM): 32855.5; TGR inhibition visualized by TRFS-Green, single replicate (5hr, 15 µM): 32828 and 32883; TGR inhibition visualized by TRFS-Green, Average (5hr, 30 µM): 29603; TGR inhibition visualized by TRFS-Green, single replicate (5hr, 30 µM): 29933 and 29273; TGR inhibition visualized by TRFS-Green, Average (24hr, 5 µM): 44285; TGR inhibition visualized by TRFS-Green, single replicate (24hr, 5 µM): 44288 and 44282; TGR inhibition visualized by TRFS-Green, Average (24hr, 15 µM): 35708; TGR inhibition visualized by TRFS-Green, single replicate (24hr, 15 µM): 35593 and 35823; TGR inhibition visualized by TRFS-Green, Average (24hr, 30 µM): 33705.5; TGR inhibition visualized by TRFS-Green, single replicate (24hr, 30 µM): 33980 and 33431
2 | Cc1oc(C2CCCCC2)nc1CN[C@@H]1C[C@@H]2C[C@H]([C@H]1C)C2(C)C [C4 (8VP121-1)] | 12224.5 | 12022 and 12427 | 11617.5 | 11812 and 11423 | 10356 | 10371 and 10341 | 19189 | 19355 and 19023 | 17814.5 | 17877 and 17752 | 13785 | 13959 and 13611 | 24561 | 24110 and 25012 | 22452 | 22972 and 21932 | 19172 | 19108 and 19236 | 26229 | 26469 and 25989 | TGR inhibition visualized by TRFS-Green, Average (4hr, 15 µM): 23381.5; TGR inhibition visualized by TRFS-Green, single replicate (4hr, 15 µM): 23782 and 22981; TGR inhibition visualized by TRFS-Green, Average (4hr, 30 µM): 19196; TGR inhibition visualized by TRFS-Green, single replicate (4hr, 30 µM): 19157 and 19235; TGR inhibition visualized by TRFS-Green, Average (5hr, 5 µM): 27106; TGR inhibition visualized by TRFS-Green, single replicate (5hr, 5 µM): 27097 and 27115; TGR inhibition visualized by TRFS-Green, Average (5hr, 15 µM): 23897.5; TGR inhibition visualized by TRFS-Green, single replicate (5hr, 15 µM): 23926 and 23869; TGR inhibition visualized by TRFS-Green, Average (5hr, 30 µM): 21898.5; TGR inhibition visualized by TRFS-Green, single replicate (5hr, 30 µM): 21774 and 22023; TGR inhibition visualized by TRFS-Green, Average (24hr, 5 µM): 29485; TGR inhibition visualized by TRFS-Green, single replicate (24hr, 5 µM): 29989 and 28981; TGR inhibition visualized by TRFS-Green, Average (24hr, 15 µM): 27619.5; TGR inhibition visualized by TRFS-Green, single replicate (24hr, 15 µM): 27128 and 28111; TGR inhibition visualized by TRFS-Green, Average (24hr, 30 µM): 25005.5; TGR inhibition visualized by TRFS-Green, single replicate (24hr, 30 µM): 25040 and 24971

From paper PMC10287695, “Non-covalent inhibitors of thioredoxin glutathione reductase with schistosomicidal activity in vivo” (Nature Communications, 2023)
